Experimental data published in patent US12497386B2, “Estrogen receptor-modulating compounds” (RADIUS PHARMACEUTICALS, INC., priority 2018, dated 2025).

System: MCF-7 cells
Experiment: MCF-7 Proliferation Inhibition Assay
Type: cell-based, human
Conditions: 10 pM dose of E2, 7 days incubation, CellTiterGlo viability
Description: Proliferation Assay in MCF-7 and T47D Cells
MCF-7 and T47D cells were stripped for 3 days in phenol red-free RPMI1640 media containing 10% charcoal-stripped fetal bovine serum (CS-FBS) and 1% Penicillin/streptomycin (P/S). Cells (volume of 90 μl/well) were seeded in 96 well plates at a density of 2500 cells/well for MCF-7 cells and 1500 cells/well for T47D cells. On the following day, plates were treated with the test compounds (10× concentration in media, volume of 10 μl/well added) both in the absence and in the presence of two doses of E2 (10 pM and 1 nM). The cells were incubated with test compounds for 7 days. The viability of the cells was assessed using CellTiterGlo (Promega, Cat #G7573) according to the manufacturer's instructions. Growth inhibition curves and IC50 values were calculated using the GraphPadPrism 6.0 software. Data values shown in Table 1 were obtained using the 10 pM dose of E2.

IC50 (Homo sapiens, MCF7, 168 h) [nM]	IC50 [nM]	SMILES
1 to 10		COc1ccc(-c2c(C)c3cc(O)ccc3n2Cc2ccc(CCNC(C)C)cc2)cc1 [Compound D-08, 1-(4-(2-(Isopropylamino)ethyl)benzyl)-2-(4-methoxyphenyl)-3-methyl-1H-indol-5-ol]
< 1		Cc1ccccc1[C@H]1CCc2cc(O)ccc2[C@H]1c1ccc(CCNCC2CC2)cc1 [LA-22, (5R,6S)-5-(4-(2-((cyclopropylmethyl)amino)ethyl)phenyl)-6-(o-tolyl)-5,6,7,8-tetrahydronaphthalen-2-ol]
< 1		CCNCCc1ccc(Cn2c(-c3ccccc3C(F)(F)F)c(F)c3cc(O)ccc32)cc1 [Compound D-34, 1-(4-(2-(Ethylamino)ethyl)benzyl)-3-fluoro-2-(2-(trifluoromethyl)phenyl)-1H-indol-5-ol]
< 1		CCNCCc1ccc(Cn2c(-c3ccccc3C)c(F)c3cc(O)ccc32)cc1 [Compound D-29, 1-(4-(2-(Ethylamino)ethyl)benzyl)-3-fluoro-2-(o-tolyl)-1H-indol-5-ol]
	< 1	CCCCNCCc1ccc(Cn2c(-c3ccccc3C)c(F)c3cc(O)ccc32)cc1 [Compound D-68, 1-(4-(2-(Butylamino)ethyl)benzyl)-3-fluoro-2-(o-tolyl)-1H-indol-5-01]
< 1		Cc1ccccc1-c1c(F)c2cc(O)ccc2n1Cc1ccc(CCNC2CCC2)cc1 [Compound D-46, 1-(4-(2-(Cyclobutylamino)ethyl)benzyl)-3-fluoro-2-(o-tolyl)-1H-indol-5-ol]
< 1		Oc1ccc2c(c1)CC[C@H](c1ccccc1)[C@@H]2c1ccc(CCNCC2CC2)cc1 [LA-19, (5R,6S)-5-(4-(2-((Cyclopropylmethyl)amino)ethyl)phenyl)-6-phenyl-5,6,7,8-tetrahydronaphthalen-2-ol]
< 1		Cc1ccccc1-c1sc2cc(O)ccc2c1Oc1ccc(CCNC2CC2)cc1 [BT-05, 3-(4-(2-(Cyclopropylamino)ethyl)phenoxy)-2-(o-tolyl)benzo[b]thiophen-6-ol]
< 1		Cc1cc(F)ccc1-c1c(F)c2cc(O)ccc2n1Cc1ccc(CCNC2CC2)cc1 [Compound D-36, 1-(4-(2-(Cyclopropylamino)ethyl)benzyl)-3-fluoro-2-(4-fluoro-2-methylphenyl)-1H-indol-5-ol]
< 1		CCCN1CC(=Cc2ccc(Oc3c(-c4ccccc4C)sc4cc(O)ccc34)cc2)C1 [BT-17, 3-(4-((1-Propylazetidin-3-ylidene)methyl)phenoxy)-2-(o-tolyl)benzo[b]thiophen-6-ol]
< 1		COc1ccc(-c2c(F)c3cc(O)ccc3n2Cc2ccc(CCNCCCF)cc2)c(C)c1 [Compound D-104, 3-Fluoro-1-(4-(2-((3-fluoropropyl)amino)ethyl)benzyl)-2-(4-methoxy-2-methylphenyl)-1H-indol-5-ol]
< 1		CCNCCc1ccc(Cn2c(-c3c(C)cccc3C)c(F)c3cc(O)ccc32)cc1 [Compound D-78, 2-(2,6-Dimethylphenyl)-1-(4-(2-(ethylamino)ethyl)benzyl)-3-fluoro-1H-indol-5-ol]
< 1		Cc1ccccc1-c1c(F)c2c3cn[nH]c3ccc2n1Cc1ccc(CCNC2CCC2)cc1 [Compound D-89, N-(4-((8-Fluoro-7-(o-tolyl)pyrrolo[3,2-e]indazol-6(3H)-yl)methyl)phenethyl)cyclobutanamine]
< 1		CCCNCCc1ccc(Cn2c(-c3ccccc3-c3ccccc3)c(F)c3cc(O)ccc32)cc1 [Compound D-66, 2-([1,1′-Biphenyl]-2-yl)-3-fluoro-1-(4-(2-(propylamino)ethyl)benzyl)-1H-indol-5-ol]
< 1		COc1ccc(-c2c(F)c3cc(O)ccc3n2Cc2ccc(CCNCCF)cc2)c(C)c1 [Compound D-103, 3-Fluoro-1-(4-(2-((2-fluoroethyl)amino)ethyl)benzyl)-2-(4-methoxy-2-methylphenyl)-1H-indol-5-ol]
< 1		CCNCCc1ccc(C2c3ccc(O)cc3CCC2c2ccc(C(C)C)cc2)cc1 (stereo not shown) [LA-31, 5-(4-(2-(Ethylamino)ethyl)phenyl)-6-(4-isopropylphenyl)-5,6,7,8-tetrahydronaphthalen-2-ol]
> 10		COc1ccc(-c2c(C)c3cc(O)ccc3n2Cc2ccc(CCNCC(F)(F)F)cc2)cc1 [Compound D-12, 2-(4-Methoxyphenyl)-3-methyl-1-(4-(2-((2,2,2-trifluoroethyl)amino)ethyl)benzyl)-1H-indol-5-ol]
< 1		Cc1cccc(C)c1-c1c(F)c2cc(O)ccc2n1Cc1ccc(CCNC2CCC2)cc1 [Compound D-50, 1-(4-(2-(Cyclobutylamino)ethyl)benzyl)-2-(2,6-dimethylphenyl)-3-fluoro-1H-indol-5-ol]

IC50 (Homo sapiens, MCF7, 168 h) [nM]	IC50 [nM]	SMILES
< 1		Cc1ccccc1C1=C(Cc2ccc(CCNC3CC3)cc2)c2ccc(O)cc2OCC1 [Bx-06, 5-(4-(2-(Cyclopropylamino)ethyl)benzyl)-4-(o-tolyl)-2,3-dihydrobenzo[b]oxepin-8-ol]
< 1		CCCNCCc1ccc(Cn2c(-c3ccccc3OC)c(F)c3cc(O)ccc32)cc1 [Compound D-87, 3-Fluoro-2-(2-methoxyphenyl)-1-(4-(2-(propylamino)ethyl)benzyl)-1H-indol-5-ol]
< 1		Cc1ccccc1-c1c(F)c2c3cn[nH]c3ccc2n1Cc1ccc(CCNC2CC2)cc1 [Compound D-90, N-(4-((8-Fluoro-7-(o-tolyl)pyrrolo[3,2-e]indazol-6(3H)-yl)methyl)phenethyl)cyclopropanamine]
< 1		Cc1ccccc1-c1sc2cc(O)ccc2c1Oc1ccc(CCNCC2CC2)cc1 [BT-12, 3-(4-(2-((Cyclopropylmethyl)amino)ethyl)phenoxy)-2-(o-tolyl)benzo[b]thiophen-6-ol]
< 1		Cc1ccccc1-c1c(F)c2cc(O)ccc2n1Cc1ccc(CCNCCCF)cc1 [Compound D-69, 3-Fluoro-1-(4-(2-((3-fluoropropyl)amino)ethyl)benzyl)-2-(o-tolyl)-1H-indol-5-ol]
< 1		CCNCCc1ccc([C@@H]2c3ccc(O)cc3CC[C@@H]2c2ccccc2C)cc1 [LA-21, (5R,6S)-5-(4-(2-(Ethylamino)ethyl)phenyl)-6-(o-tolyl)-5,6,7,8-tetrahydronaphthalen-2-ol]
< 1		Oc1ccc2c(c1)c(F)c(-c1ccccc1C(F)(F)F)n2Cc1ccc(CCNCC2CC2)cc1 [Compound D-40, 1-(4-(2-((Cyclopropylmethyl)amino)ethyl)benzyl)-3-fluoro-2-(2-(trifluoromethyl)phenyl)-1H-indol-5-ol]
< 1		Cc1ccccc1-c1c(F)c2cc(O)ccc2n1Cc1ccc(CCNC2CC2)cc1 [Compound D-28, 1-(4-(2-(Cyclopropylamino)ethyl)benzyl)-3-fluoro-2-(o-tolyl)-1H-indol-5-ol]
< 1		CCCNCCc1ccc(C2c3ccc(O)cc3CCC2c2ccc(C(C)C)cc2)cc1 (stereo not shown) [LA-32, 6-(4-Isopropylphenyl)-5-(4-(2-(propylamino)ethyl)phenyl)-5,6,7,8-tetrahydronaphthalen-2-ol]
1 to 10		COc1ccc(-c2c(C)c3cc(O)ccc3n2Cc2ccc(CCNC3CC3)cc2)cc1 [Compound D-02, 1-(4-(2-(Cyclopropylamino)ethyl)benzyl)-2-(4-methoxyphenyl)-3-methyl-1H-indol-5-ol]
< 1		Cc1cc(O)ccc1-c1c(F)c2cc(O)ccc2n1Cc1ccc(CCNC2CC2)cc1 [Compound D-52, 1-(4-(2-(Cyclopropylamino)ethyl)benzyl)-3-fluoro-2-(4-hydroxy-2-methylphenyl)-1H-indol-5-ol]
< 1		CCCNCCc1ccc(Cn2c(-c3ccccc3C)c(F)c3c4cn[nH]c4ccc32)cc1 [Compound D-91, N-(4-((8-fluoro-7-(o-tolyl)pyrrolo[3,2-e]indazol-6(3H)-yl)methyl)phenethyl)propan-1-amine]
	< 1	CCCNCCc1ccc(Cn2c(-c3ccccc3C)c(F)c3cc(O)ccc32)cc1 [Compound D-67, 3-Fluoro-1-(4-(2-(propylamino)ethyl)benzyl)-2-(o-tolyl)-1H-indol-5-01]
< 1		Cc1ccccc1-c1c(F)c2c3cn[nH]c3ccc2n1Cc1ccc(CCNCCF)cc1 [Compound D-101, 2-Fluoro-N-(4-((8-fluoro-7-(o-tolyl)pyrrolo[3,2-e]indazol-6(3H)-yl)methyl)phenethyl)ethan-1-amine]
1 to 10		COc1ccc(-c2c(C)c3cc(O)ccc3n2Cc2ccc(CCNCC3CC3)cc2)cc1 [Compound D-03, 1-(4-(2-((Cyclopropylmethyl)amino)ethyl)benzyl)-2-(4-methoxyphenyl)-3-methyl-1H-indol-5-ol]
< 1		Cc1ccccc1-c1c(F)c2c3cn[nH]c3ccc2n1Cc1ccc(CCNCC2CC2)cc1 [Compound D-88, N-(Cyclopropylmethyl)-2-(4-((8-fluoro-7-(o-tolyl)pyrrolo[3,2-e]indazol-6(3H)-yl)methyl)phenyl)ethan-1-amine]
< 1		CCNCCc1ccc([C@@H]2c3ccc(O)cc3CC[C@@H]2c2ccccc2)cc1 [LA-18, (5R,6S)-5-(4-(2-(Ethylamino)ethyl)phenyl)-6-phenyl-5,6,7,8-tetrahydronaphthalen-2-ol]
< 1		CC(C)c1ccc(C2CCc3cc(O)ccc3C2c2ccc(CCNCC3CC3)cc2)cc1 (stereo not shown) [LA-33, 5-(4-(2-((Cyclopropylmethyl)amino)ethyl)phenyl)-6-(4-isopropylphenyl)-5,6,7,8-tetrahydronaphthalen-2-ol]

SMILES	IC50 (Homo sapiens, MCF7, 168 h) [nM]	IC50 [nM]
Cc1ccccc1-c1c(F)c2cc(O)ccc2n1Cc1ccc(CC(C)NC2CC2)cc1 [Compound D-32, 1-(4-(2-(Cyclopropylamino)propyl)benzyl)-3-fluoro-2-(o-tolyl)-1H-indol-5-ol]	< 1	
